{
  "source": "patent US3997662A",
  "about": "“Antibiotics and their preparation” (Rhone-Poulenc S.A., priority 1962, dated 1976)",
  "key": {"Klebsiella pneumoniae": {"system": "Klebsiella pneumoniae", "test": "Activity by turbidimetric estimation against a 9865 RP control", "format": "cell-based", "settings": "purified product; units per mg, Klebsiella pneumoniae growth inhibition", "excerpt": "The following non-limitative Examples illustrate the invention. […] This activity is expressed in units (u) per mg. for solid products and in units per cc. for solutions. (The unit is defined as the smallest quantity of product which, dissolved in 1 cc. of an appropriate medium, inhibits the growth of Klebsiella pneumoniae under the conditions in question.)"}, "numerous bacteria": {"system": "numerous bacteria", "test": "Bacteriostatic activity (general statement)", "format": "cell-based", "settings": "including antibiotic-resistant bacteria", "excerpt": "For each organism, the lowest concentration of substance has been determined which, under the defined conditions, prevents all visible development in an appropriate nutritive broth. The results of various determinations are shown in Table VI, wherein the minimal bacteriostatic concentrations are expressed as micrograms of substance per cubic centimeter of experimental medium."}, "Solubility": {"test": "Solubility", "format": "physicochemical"}, "[1]": {"system": "transplantable tumours in the mouse", "test": "Anti-cancer activity (general statement)"}},
  "note": "Where a name gives a salt, the structure may show the parent alone. Read-outs that look alike come from different tables or passages of the source.",
  "data": [
    {"compound": "COc1cccc2c1C(=O)c1c(O)c3c(c(O)c1C2=O)C[C@@](O)(C(C)=O)C[C@@H]3O[C@H]1C[C@H](N)[C@H](O)[C@H](C)O1", "note": "[13057 RP]", "values": [
      {"measurement": "activity", "setting": "Klebsiella pneumoniae", "value": 160, "unit": "μ/mg."},
      {"measurement": "bacteriostatic activity", "setting": "numerous bacteria", "value": "exerted against numerous bacteria"},
      {"measurement": "solubility in benzene", "setting": "Solubility; benzene", "value": "particularly insoluble"},
      {"measurement": "solubility in diethyl ether", "setting": "Solubility; diethyl ether", "value": "particularly insoluble"},
      {"measurement": "solubility in ketones", "setting": "Solubility; ketones", "value": "very slightly soluble"},
      {"measurement": "solubility in water", "setting": "Solubility", "value": "very slightly soluble"},
      {"measurement": "anti-cancer activity", "setting": "[1]", "value": "most interesting of the new antibiotics"},
      {"measurement": "anti-cancer activity", "setting": "[1]; listed as 13057 R.P.", "value": "very pronounced"}
    ]},
    {"compound": "COc1cccc2c1C(=O)c1c(O)c3c(c(O)c1C2=O)C[C@@](O)(C(C)=O)C[C@@H]3O[C@H]1C[C@H](N)[C@H](O)[C@H](C)O1", "note": "[13057 RP hydrochloride]", "values": [
      {"measurement": "solubility in chloroform", "setting": "Solubility; chloroform", "value": "slightly soluble"},
      {"measurement": "solubility in water", "setting": "Solubility", "value": "soluble"}
    ]}
  ]
}
